Measurements reported in patent US20050074867A1, “Preservation of competent cells at ambient temperatures” (priority 2001, published 2005).

Key:
Format in all cases: cell-based
[1] = system: Escherichia coli ATCC strain MM294 cells; assay: Electroporation of E. coli MM294 cells with pUC18 (survival and efficiency); settings: cells loaded with 10% MAG, preserved (dried); average of three independent experiments
Protocol: (§1) (2) Electroporation of fresh E. coli electrocompetent cells: Two aliquots of the concentrated cells (50 μl each) were transferred into pre-chilled Eppendorf tubes (1.5 ml) and 2 μl of pUC18 plasmid DNA (approx. 300 ng/μl) were added to the tubes. The [cells+DNA] mixtures were incubated on ice for 5 minutes and transferred into pre-chilled cuvettes for electroporation. The cells were electroporated by using a BTX T-100 electroporator, at 625 or at 800 volts (V) in BTX cuvettes (0.1 cm gap, P/N 610 Disposable Cuvettes) with a time constant “r” equal 5 msec. Under the pulse conditions described above, the cells were subjected to an electrical field “E” equal to 6.25 kV/cm or 8.0 kV/cm.
(§2) Immediately after the pulse, the cells were transferred into small glass tubes (10×100 mm) with 0.5 ml of “outgrowth medium” (L-broth+20% sucrose+10 mM CaCl2). The electroporated bacteria were incubated at 37° C. with moderate shaking (150 rpm) for 60 minutes. When the 60 minutes period elapsed, the cells were diluted in “outgrowth medium” and duplicate samples were spread plated on L-agar plates with no antibiotic (to determine electroporation survival) and on L-agar plates with 50 μg/ml or 100 μg/ml of ampicillin (selective marker on pUC18 plasmid; to determine electroporation efficiency). The plates were incubated overnight at 37° C. and the colonies were counted the next day.
(§3) (6) Electroporation of dried (preserved) E. coli cells: One or two 50 μl aliquots were removed from each rehydrated vial and transferred to pre-chilled Eppendorf tubes. The cells were mixed with pUC18 plasmid DNA (300 ng/μl) and electroporated using the conditions described previously for the electroporation of fresh electrocompetent cells.
(§4) Electroporation survival was calculated as the number of viable cells recovered after electrical pulse per total number of electroportated cells. Electroporation efficiency was calculated as the number of transformants (cells which received pUC18 plasmid DNA) per number of cells recovered after electroporation (electroporation survival). When applicable, the electroporation efficiency was also expressed as number of transformants per 1 μg of pUC18 DNA (Cfu/μg).
In this experiment, the cells were washed twice in ice-cold 20% sucrose and concentrated 100-fold after the second wash. Additionally, four samples were prepared (A, B, C, and D). […] Additional solution consisting of 22.5% 4:1 sucrose:MAG was prepared and evaluated for preservation of the cells (sample D). […] Electroporation survival and efficiencies in samples rehydrated with solutions containing different amounts of sucrose were determined. […] Electroporation survival and efficiencies were determined and compared.

[2] = system: commercial electrocompetent E. coli cells; assay: Electroporation of preserved commercial electrocompetent E. coli cells; settings: loaded with 10% MAG, transformed immediately after drying
Protocol: as §1, §2, §3, §4
Preserved commercial cells (vitrified and frozen) were electroporated as described previously. Electroporation survival and electroporation efficiency in the preserved cells were determined and compared to the same parameters in the fresh cells (Table 5).

[3] = system: logarithmic E. coli cells; assay: Preservation survival and stability of logarithmic E. coli cells loaded in vitro before foam drying; settings: mid-logarithmic cells loaded with 0.1% at 37° C. for 30 minutes

## COC1OC(CO)C(O)C(O)C1O (stereo not shown) [MAG, a-methyl-glucoside]
[1]
  Electroporation Efficiency 10^−3%: 5.6 10^−3%
  Electroporation Efficiency Cfu/ml: 1.7 × 10^5 Cfu/ml
  Electroporation Survival (%): 28.6%
  Electroporation Survival Cfu/ml: 3.0 × 10^9 Cfu/ml
[2]
  Electroporation Efficiency 10^−3%: 6.1 +/− 5.5 10^−3%
  Electroporation Efficiency (Cfu/µg DNA): 1.6 × 10^4 +/− 1.8 × 10^2 Cfu/µg DNA
  Electroporation Efficiency Cfu/ml: 1.9 × 10^5 +/− 1.7 × 10^5 Cfu/ml
  Electroporation Survival (%): 35.7 +/− 4.7%
[2]; cell density 1/10 of fresh concentrates
  Electroporation Survival Cfu/ml: 3.2 × 10^9 +/− 4.2 × 10^8 Cfu/ml
[3]
  survived drying: 9%
